Test system: OVCAR-5 complex spheroids with HUVEC/MSC, viability, % test/control
Test: Anticancer human tumor OVCAR-5 cell line growth inhibition [AhR];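 further: spheroids exposed to compounds for 7 days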;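 on viability, T/C: 100% = DMSO vehicle control wells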
Settings: for IC50: curve of first compound; for viability, T/C: stronger effect = lower value
Procedure, shortened: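 Complex tumor spheroids co-cultured with HUVEC and human MSC stroma; AhR antagonists tested in combination with standard-of-care and investigational agents. Top concentration at or near clinical Cmax (else 10 microM), half-log dilutions; growth expressed as percent test/control.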

[1] = second compound 0.1 µM, first compound 0.0316 µM
[2] = second compound 0.1 µM, first compound 0.1 µM
[3] = second compound 0.1 µM, first compound 0.316 µM
[4] = second compound 0.1 µM, first compound 1 µM
[5] = second compound 0.1 µM, first compound 3.16 µM
[6] = second compound 0.1 µM, first compound 10 µM
[7] = second compound 0.316 µM, first compound 0.0316 µM
[8] = second compound 0.316 µM, first compound 0.1 µM
[9] = second compound 0.316 µM, first compound 0.316 µM
[10] = second compound 0.316 µM, first compound 1 µM
[11] = second compound 0.316 µM, first compound 3.16 µM
[12] = second compound 0.316 µM, first compound 10 µM
[13] = second compound 1 µM, first compound 0.0316 µM
[14] = second compound 1 µM, first compound 0.1 µM
[15] = second compound 1 µM, first compound 0.316 µM
[16] = second compound 1 µM, first compound 1 µM
[17] = second compound 1 µM, first compound 3.16 µM
[18] = second compound 1 µM, first compound 10 µM
[19] = second compound 3.16 µM, first compound 0.0316 µM
[20] = second compound 3.16 µM, first compound 0.1 µM
[21] = second compound 3.16 µM, first compound 0.316 µM
[22] = second compound 3.16 µM, first compound 1 µM
[23] = second compound 3.16 µM, first compound 3.16 µM
[24] = second compound 3.16 µM, first compound 10 µM
[25] = second compound 10 µM, first compound 0.0316 µM
[26] = second compound 10 µM, first compound 0.1 µM
[27] = second compound 10 µM, first compound 0.316 µM
[28] = second compound 10 µM, first compound 1 µM
[29] = second compound 10 µM, first compound 3.16 µM
[30] = second compound 10 µM, first compound 10 µM

CC(C)c1c(-c2ccccc2)nc2c(C#N)c[nH]n2c1=O + Cc1ccccc1N=Nc1ccc(NC(=O)c2ccnn2C)c(C)c1
IC50 (second compound 0.1 µM): > 10 µM | IC50 (second compound 0.316 µM): > 10 µM | IC50 (second compound 1 µM): > 10 µM | IC50 (second compound 3.16 µM): > 10 µM | IC50 (second compound 10 µM): > 10 µM | viability, T/C [1]: 104% | viability, T/C [2]: 102% | viability, T/C [3]: 101% | viability, T/C [4]: 101% | viability, T/C [5]: 104% | viability, T/C [6]: 106% | viability, T/C [7]: 105% | viability, T/C [8]: 111% | viability, T/C [9]: 106% | viability, T/C [10]: 103% | viability, T/C [11]: 106% | viability, T/C [12]: 104% | viability, T/C [13]: 112% | viability, T/C [14]: 109% | viability, T/C [15]: 109% | viability, T/C [16]: 106% | viability, T/C [17]: 106% | viability, T/C [18]: 111% | viability, T/C [19]: 112% | viability, T/C [20]: 112% | viability, T/C [21]: 111% | viability, T/C [22]: 108% | viability, T/C [23]: 111% | viability, T/C [24]: 114% | viability, T/C [25]: 108% | viability, T/C [26]: 110% | viability, T/C [27]: 108% | viability, T/C [28]: 107% | viability, T/C [29]: 104% | viability, T/C [30]: 104%

CC1COCCN1c1cc(-c2ccnn2C)c2ccnc(-c3ccn[nH]3)c2n1 (stereo not given) + Cc1ccccc1N=Nc1ccc(NC(=O)c2ccnn2C)c(C)c1
IC50 (second compound 0.1 µM): 0.244 µM | IC50 (second compound 0.316 µM): 0.253 µM | IC50 (second compound 1 µM): 0.284 µM | IC50 (second compound 3.16 µM): 0.269 µM | IC50 (second compound 10 µM): 0.272 µM | viability, T/C (second compound 0.1 µM, first compound 0.00316 µM): 102% | viability, T/C (second compound 0.1 µM, first compound 0.01 µM): 101% | viability, T/C [1]: 98.5% | viability, T/C [2]: 79.9% | viability, T/C [3]: 41.4% | viability, T/C [4]: 26.3% | viability, T/C (second compound 0.316 µM, first compound 0.00316 µM): 104% | viability, T/C (second compound 0.316 µM, first compound 0.01 µM): 105% | viability, T/C [7]: 101% | viability, T/C [8]: 81.1% | viability, T/C [9]: 42.5% | viability, T/C [10]: 28.2% | viability, T/C (second compound 1 µM, first compound 0.00316 µM): 108% | viability, T/C (second compound 1 µM, first compound 0.01 µM): 110% | viability, T/C [13]: 101% | viability, T/C [14]: 87.5% | viability, T/C [15]: 45.5% | viability, T/C [16]: 30.1% | viability, T/C (second compound 3.16 µM, first compound 0.00316 µM): 109% | viability, T/C (second compound 3.16 µM, first compound 0.01 µM): 109% | viability, T/C [19]: 105% | viability, T/C [20]: 88.6% | viability, T/C [21]: 43.4% | viability, T/C [22]: 32.5% | viability, T/C (second compound 10 µM, first compound 0.00316 µM): 105% | viability, T/C (second compound 10 µM, first compound 0.01 µM): 106% | viability, T/C [25]: 101% | viability, T/C [26]: 82.2% | viability, T/C [27]: 45% | viability, T/C [28]: 33%

CC1COCCN1c1cc(C2(S(C)(=N)=O)CC2)nc(-c2ccnc3[nH]ccc23)n1 (stereo not given) + Cc1ccccc1N=Nc1ccc(NC(=O)c2ccnn2C)c(C)c1
IC50 (second compound 0.1 µM): 7.02 µM | IC50 (second compound 0.316 µM): 7.54 µM | IC50 (second compound 1 µM): 9.32 µM | IC50 (second compound 3.16 µM): 9.73 µM | IC50 (second compound 10 µM): > 10 µM | viability, T/C [1]: 107% | viability, T/C [2]: 108% | viability, T/C [3]: 105% | viability, T/C [4]: 99.7% | viability, T/C [5]: 74.8% | viability, T/C [6]: 38.9% | viability, T/C [7]: 111% | viability, T/C [8]: 111% | viability, T/C [9]: 108% | viability, T/C [10]: 100% | viability, T/C [11]: 78.9% | viability, T/C [12]: 40.6% | viability, T/C [13]: 114% | viability, T/C [14]: 115% | viability, T/C [15]: 115% | viability, T/C [16]: 105% | viability, T/C [17]: 83.3% | viability, T/C [18]: 47.8% | viability, T/C [19]: 111% | viability, T/C [20]: 121% | viability, T/C [21]: 116% | viability, T/C [22]: 106% | viability, T/C [23]: 85.9% | viability, T/C [24]: 49% | viability, T/C [25]: 107% | viability, T/C [26]: 110% | viability, T/C [27]: 111% | viability, T/C [28]: 105% | viability, T/C [29]: 85.4% | viability, T/C [30]: 50.8%

COc1ccc([C@@H](O)c2cc(-c3ncnc4cc(N5CCOCC5)ccc34)c(F)cc2Cl)nn1 + Cc1ccccc1N=Nc1ccc(NC(=O)c2ccnn2C)c(C)c1
IC50 (second compound 0.1 µM): 2.91 µM | IC50 (second compound 0.316 µM): 2.98 µM | IC50 (second compound 1 µM): 3.75 µM | IC50 (second compound 3.16 µM): 4.54 µM | IC50 (second compound 10 µM): 3.23 µM | viability, T/C [1]: 102% | viability, T/C [2]: 101% | viability, T/C [3]: 95.5% | viability, T/C [4]: 76.3% | viability, T/C [5]: 48.4% | viability, T/C [6]: 24.1% | viability, T/C [7]: 104% | viability, T/C [8]: 102% | viability, T/C [9]: 97.5% | viability, T/C [10]: 76.8% | viability, T/C [11]: 49.1% | viability, T/C [12]: 27.6% | viability, T/C [13]: 109% | viability, T/C [14]: 107% | viability, T/C [15]: 99.5% | viability, T/C [16]: 87.5% | viability, T/C [17]: 53.5% | viability, T/C [18]: 26% | viability, T/C [19]: 113% | viability, T/C [20]: 106% | viability, T/C [21]: 98.9% | viability, T/C [22]: 85.1% | viability, T/C [23]: 57.6% | viability, T/C [24]: 31.6% | viability, T/C [25]: 103% | viability, T/C [26]: 98.9% | viability, T/C [27]: 96.3% | viability, T/C [28]: 76.7% | viability, T/C [29]: 51.2% | viability, T/C [30]: 22.8%

O=C(C=Cn1cnc(-c2cc(C(F)(F)F)cc(C(F)(F)F)c2)n1)NNc1cnccn1 + Cc1ccccc1N=Nc1ccc(NC(=O)c2ccnn2C)c(C)c1
IC50 (second compound 0.1 µM): 1.75 µM | IC50 (second compound 0.316 µM): 2.35 µM | IC50 (second compound 1 µM): 2.83 µM | IC50 (second compound 3.16 µM): 2.12 µM | IC50 (second compound 10 µM): 1.64 µM | viability, T/C (second compound 0.1 µM, first compound 0.00949 µM): 109% | viability, T/C (second compound 0.1 µM, first compound 0.03 µM): 113% | viability, T/C (second compound 0.1 µM, first compound 0.0949 µM): 102% | viability, T/C (second compound 0.1 µM, first compound 0.3 µM): 83.4% | viability, T/C (second compound 0.1 µM, first compound 0.949 µM): 59.2% | viability, T/C (second compound 0.1 µM, first compound 3 µM): 42.2% | viability, T/C (second compound 0.316 µM, first compound 0.00949 µM): 115% | viability, T/C (second compound 0.316 µM, first compound 0.03 µM): 109% | viability, T/C (second compound 0.316 µM, first compound 0.0949 µM): 100% | viability, T/C (second compound 0.316 µM, first compound 0.3 µM): 82.4% | viability, T/C (second compound 0.316 µM, first compound 0.949 µM): 59.6% | viability, T/C (second compound 0.316 µM, first compound 3 µM): 47.5% | viability, T/C (second compound 1 µM, first compound 0.00949 µM): 114% | viability, T/C (second compound 1 µM, first compound 0.03 µM): 116% | viability, T/C (second compound 1 µM, first compound 0.0949 µM): 106% | viability, T/C (second compound 1 µM, first compound 0.3 µM): 90% | viability, T/C (second compound 1 µM, first compound 0.949 µM): 64.6% | viability, T/C (second compound 1 µM, first compound 3 µM): 49.2% | viability, T/C (second compound 3.16 µM, first compound 0.00949 µM): 114% | viability, T/C (second compound 3.16 µM, first compound 0.03 µM): 118% | viability, T/C (second compound 3.16 µM, first compound 0.0949 µM): 113% | viability, T/C (second compound 3.16 µM, first compound 0.3 µM): 90.8% | viability, T/C (second compound 3.16 µM, first compound 0.949 µM): 66.7% | viability, T/C (second compound 3.16 µM, first compound 3 µM): 43% | viability, T/C (second compound 10 µM, first compound 0.00949 µM): 108% | viability, T/C (second compound 10 µM, first compound 0.03 µM): 111% | viability, T/C (second compound 10 µM, first compound 0.0949 µM): 108% | viability, T/C (second compound 10 µM, first compound 0.3 µM): 89.3% | viability, T/C (second compound 10 µM, first compound 0.949 µM): 63% | viability, T/C (second compound 10 µM, first compound 3 µM): 36.4%

— PubChem BioAssay AID1919015 (Molecular Pharmacology Branch, DTP, NCI, 2023)
